For one assay, the system named is PS-DKO cells. Kind of assay: Lipidomic analyses of membranes. The following applies: for ceramide levels / sphingomyelin levels: PS-DKO cells, BI 100 nM or myriocin 5 μM. The assay is classed as cell-based, mouse. How it is done:
(§1) Lipid extracts were prepared via chloroform-methanol extraction, spiked with appropriate internal standards, and analyzed using a 6490 Triple Quadrupole LC/MS system (Agilent Technologies, Santa Clara, Calif.) as described previously (6, 7). Glycerophospholipids and sphingolipids were separated with normal-phase HPLC using an Agilent Zorbax Rx-Sil column (inner diameter 2.1×100 mm) under the following conditions: mobile phase A (chloroform:methanol:1 M ammonium hydroxide, 89.9:10:0.1, v/v) and mobile phase B (chloroform:methanol:water:ammonium hydroxide, 55:39.9:5:0.1, v/v); 95% A for 2 min, linear gradient to 30% A over 18 min and held for 3 min, and linear gradient to 95% A over 2 min and held for 6 min. Quantification of lipid species was accomplished using multiple reaction monitoring (MRM) transitions that were developed in earlier studies (6) in conjunction with referencing of appropriate internal standards: ceramide d18:1/17:0 and sphingomyelin d18:1/12:0 (Avanti Polar Lipids, Alabaster, Ala.).
as §1, with “Lipids were extracted from equal amounts of material (30 μg protein/sample). Lipid extracts” for “Lipid extracts”, “described previously (Chan et al., 2012). Glycerophospholipids and” for “described previously (6, 7). Glycerophospholipids and”, “hydroxide, 89.9:10:0.1, v/v/v) and mobile” for “hydroxide, 89.9:10:0.1, v/v) and mobile”, “hydroxide, 55:39.9:5:0.1, v/v/v); 95% A” for “hydroxide, 55:39.9:5:0.1, v/v); 95% A”, “earlier studies (Chan et al., 2012) in conjunction” for “earlier studies (6) in conjunction”, “Alabaster, Ala.). Values are represented as mole fraction with respect to total lipid (% molarity)” for “Alabaster, Ala.).”
Lipids were extracted from equal amounts of material (30 μg protein/sample). Lipid extracts were prepared via chloroform-methanol extraction, spiked with appropriate internal standards, and analyzed using a 6490 Triple Quadrupole LC/MS system (Agilent Technologies, Santa Clara, Calif.) as described previously (Chan et al, 2012). Glycerophospholipids and sphingolipids were separated with normal-phase HPLC using an Agilent Zorbax Rx-Sil column (inner diameter 2.1×100 mm) under the following conditions: mobile phase A (chloroform:methanol:1 M ammonium hydroxide, 89.9:10:0.1, v/v/v) and mobile phase B (chloroform:methanol:water:ammonium hydroxide, 55:39.9:5:0.1, v/v/v/v); 95% A for 2 min, linear gradient to 30% A over 18 min and held for 3 min, and linear gradient to 95% A over 2 min and held for 6 min. Quantification of lipid species was accomplished using multiple reaction monitoring (MRM) transitions that were developed in earlier studies (Chan et al, 2012) in conjunction with referencing of appropriate internal standards: ceramide d18:1/17:0 and sphingomyelin d18:1/12:0 (Avanti Polar Lipids, Alabaster, Ala., USA). Values are represented as mole fraction with respect to total lipid (% molarity). For this, lipid mass (in moles) of any specific lipid is normalized by the total mass (in moles) of all the lipids measured (Chan et al, 2012). In addition, all of our results were further normalized by protein content.

Assay [1] concerns acid (aSMase) and neutral (nSMase) sphingomyelinases. Kind of assay: Analysis of sphingomyelinase activity. Type of assay: cell-based, human. The settings on record: SH-SY5Y cells; DAPT 10 μM. How it is done: One hundred μg of protein were assayed in 100 mM of the appropriate buffer (Tris/glycine for pH 7.0-9.0 and sodium acetate for pH 4.0-5.0), 1.55 mM Triton X-100, 0.025% BSA, 1 mM MgCl2, and 400 μM bovine brain sphingomyelin spiked with 22000 dpm of [3H]-bovine sphingomyelin ([…]). Reactions were carried out in borosilicate glass culture tubes at 37° C., overnight, followed by quenching with 1.2 ml of ice-cold 10% trichloroacetic acid, incubation at 4° C. for 30 min, and centrifugation at 2000 rpm at 4° C. for 20 min. One ml of supernatant was transferred to clean tubes, 1 ml of ether was added, the mixture vortexed, and centrifuged at 2000 rpm for 5 min. Eight hundred μl of the bottom phase was transferred to scintillation vials, 5 ml of Scintiverse BD (Fisher Scientific, Fair Lawn, N.J.) was added, and samples were counted. […]
Reactions were carried out in borosilicate glass culture tubes at 37° C., overnight, followed by quenching with 1.2 ml of ice-cold 10% trichloroacetic acid, incubation at 4° C. for 30 min, and centrifugation at 2000 rpm at 4° C. for 20 min. […] Eight hundred μl of the bottom phase was transferred to scintillation vials, 5 ml of Scintiverse BD (Fisher Scientific, Fair Lawn, N.J.) was added, and samples were counted. […]

Each structure is given as a SMILES string. Entries after “also recorded” stand apart in the source; their conditions may differ.

On to `C[C@@H](NC(=O)c1cc(C(=O)N[C@@H](Cc2ccccc2)[C@H](O)CNC2CC2)cc(N(C)S(C)(=O)=O)c1)c1ccccc1` [BI, β-secretase inhibitor IV], for which, in the assay with PS-DKO cells, the ceramide levels entry was “reversing the alterations in both sphingomyelin (FIG. 46E) and ceramide”; the sphingomyelin levels entry was “reversing the alterations in both sphingomyelin”. In addition, in the assay with PS-DKO cells (listed as BACE1 inhibitor), the ceramide levels entry is “completely reversed the changes in SM and Cer levels”; the sphingomyelin levels entry was “completely reversed the changes in SM and Cer levels”. Besides, the “PtdSer content of membranes” value with PS-DKO cells (PS-DKO membranes, BI) is given as “reduced the PtdSer content of PS-DKO membranes to control levels”.

For `C[C@H](NC(=O)Cc1cc(F)cc(F)c1)C(=O)N[C@H](C(=O)OC(C)(C)C)c1ccccc1` [DAPT], in assay [1], the SMase activity result is on record as “significantly increased SMase activities; also recorded: increase in SMase activity”.
